According to patent US7183324B2, “2,3,4-substituted cyclopentanones as therapeutic agents” (Allergan, Inc., priority 2004, dated 2007):

Tests used:
HEP4 = biological target: T1, HEP4 (Homo sapiens, UniProt P35408); experiment: Radioligand binding, EP4 receptor; details: [3H]PGE2 5 nM, HEK-293 membranes
T1 construct: expressed in transfected cells; host or cells: HEK-293
Procedure: (§1) HEK-293 cells stably expressing the human or feline FP receptor, or EP1, EP2, or EP4 receptors were washed with TME buffer, scraped from the bottom of the flasks, and homogenized for 30 sec using a Brinkman PT 10/35 polytron. TME buffer was added to achieve a final 40 ml volume in the centrifuge tubes (the composition of TME is 100 mM TRIS base, 20 mM MgCl2, […]; 10N HCl is added to achieve a pH of 7.4).
(§2) The cell homogenate was centrifuged at 19000 r.p.m. for 20 min at 4° C. using a Beckman Ti-60 rotor. The resultant pellet was resuspended in TME buffer to give a final 1 mg/ml protein concentration, as determined by Biorad assay. Radioligand binding competition assays vs. [^3H-]17-phenyl PGF2α (5 nM) were performed in a 100 μl volume for 60 min. Binding reactions were started by adding plasma membrane fraction. The reaction was terminated by the addition of 4 ml ice-cold TRIS-HCl buffer and rapid filtration through glass fiber GF/B filters using a Brandel cell harvester. The filters were washed 3 times with ice-cold buffer and oven dried for one hour. Non-specific binding was determined with 10 uM unlabeled 17-phenyl PGF2α.
(§3) [^3H-] PGE2 (5 nM; specific activity 180 Ci mmol) was used as the radioligand for EP receptors. Binding studies employing EP1, EP2, EP3, EP4 were performed in duplicate in at least three separate experiments. A 200 μl assay volume was used. Incubations were for 60 min at 25° C. and were terminated by the addition of 4 ml of ice-cold 50 mM TRIS-HCl, followed by rapid filtration through Whatman GF/B filters and three additional 4 ml washes in a cell harvester (Brandel). Non-specific binding determined with 10^−5M of unlabeled PGE2.

hEP3A/Gqi5 = biological target: T2, hEP3A/Gqi5 (Homo sapiens, UniProt P43115); experiment: FLIPR calcium signal, hEP3A/Gqi5; assay type: cell-based; details: HEK-293 (EBNA) cells, read-out: FUNCTIONAL EC50 HEP3A
T2 construct: expressed in transfected cells; host or cells: HEK-293 (EBNA)
T2 sequence (P43115 1-390): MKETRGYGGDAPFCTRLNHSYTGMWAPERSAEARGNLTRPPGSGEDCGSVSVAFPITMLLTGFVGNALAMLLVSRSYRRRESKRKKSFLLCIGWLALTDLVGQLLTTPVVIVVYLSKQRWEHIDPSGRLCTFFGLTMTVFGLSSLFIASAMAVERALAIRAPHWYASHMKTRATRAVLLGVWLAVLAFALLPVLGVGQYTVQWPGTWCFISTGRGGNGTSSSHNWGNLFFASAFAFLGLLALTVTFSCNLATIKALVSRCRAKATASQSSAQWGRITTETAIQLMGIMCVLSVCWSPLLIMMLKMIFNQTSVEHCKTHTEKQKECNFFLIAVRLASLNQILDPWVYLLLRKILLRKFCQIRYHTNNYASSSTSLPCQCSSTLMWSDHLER
Procedure: (§4) HEK-293 (EBNA) cells, stably expressing one type or subtype of recombinant human prostaglandin receptors (prostaglandin receptors expressed: hDP/Gqs5; hEP1; hEP2/Gqs5; hEP3A/Gqi5; hEP4/Gqs5; hFP; hIP; hTP), were cultured in 100 mm culture dishes in high-glucose DMEM medium containing 10% fetal bovine serum, 2 mM 1-glutamine, 250 μg/ml geneticin (G418) and 200 μg/ml hygromycin B as selection markers, and 100 units/ml penicillin G, 100 μg/ml streptomycin and 0.25 μg/ml amphotericin B. • (b) Calcium Signal Studies on the FLIPR™
(§5) Cells were seeded at a density of 5×10^4 cells per well in Biocoat® Poly-D-lysine-coated black-wall, clear-bottom 96-well plates (Becton-Dickinson) and allowed to attach overnight in an incubator at 37° C. Cells were then washed two times with HBSS-HEPES buffer (Hanks Balanced Salt Solution without bicarbonate and phenol red, 20 mM HEPES, pH 7.4) using a Denley Cellwash plate washer (Labsystems). After 45 minutes of dye-loading in the dark, using the calcium-sensitive dye Fluo-4 AM at a final concentration of 2 μM, plates were washed four times with HBSS-HEPES buffer to remove excess dye leaving 100 μl in each well. Plates were re-equilibrated to 37° C. for a few minutes.
(§6) Cells were excited with an Argon laser at 488 nm, and emission was measured through a 510–570 nm bandwidth emission filter (FLIPR™, Molecular Devices, Sunnyvale, Calif.). Drug solution was added in a 50 μl volume to each well to give the desired final concentration. The peak increase in fluorescence intensity was recorded for each well. On each plate, four wells each served as negative (HBSS-HEPES buffer) and positive controls (standard agonists: BW245C (hDP); PGE2 (hEP1; hEP2/Gqs5; hEP3A/Gqi5; hEP4/Gqs5); PGF2α (hFP); carbacyclin (hIP); U46619 (hTP), depending on receptor). The peak fluorescence change in each drug-containing well was then expressed relative to the controls.
(§7) Compounds were tested in a high-throughput (HTS) or concentration-response (CoRe) format. In the HTS format, forty-four compounds per plate were examined in duplicates at a concentration of 10^−5 M. To generate concentration-response curves, four compounds per plate were tested in duplicates in a concentration range between 10^−5 and 10^−11 M. The duplicate values were averaged. In either, HTS or CoRe format each compound was tested on at least 3 separate plates using cells from different passages to give an n≧3.

hEP4/Gqs5 = biological target: T3, hEP4/Gqs5 (Homo sapiens, UniProt P35408); experiment: FLIPR calcium signal, hEP4/Gqs5; assay type: cell-based; details: HEK-293 (EBNA) cells, read-out: FUNCTIONAL EC50 HEP4
T3 construct: expressed in transfected cells; host or cells: HEK-293 (EBNA)
Procedure: as §4, §5, §6, §7

hTP = biological target: T4, hTP (Homo sapiens, UniProt P21731); experiment: FLIPR calcium signal, hTP; assay type: cell-based; details: HEK-293 (EBNA) cells, read-out: FUNCTIONAL EC50 HTP
T4 construct: expressed in transfected cells; host or cells: HEK-293 (EBNA)
T4 sequence (P21731 1-343): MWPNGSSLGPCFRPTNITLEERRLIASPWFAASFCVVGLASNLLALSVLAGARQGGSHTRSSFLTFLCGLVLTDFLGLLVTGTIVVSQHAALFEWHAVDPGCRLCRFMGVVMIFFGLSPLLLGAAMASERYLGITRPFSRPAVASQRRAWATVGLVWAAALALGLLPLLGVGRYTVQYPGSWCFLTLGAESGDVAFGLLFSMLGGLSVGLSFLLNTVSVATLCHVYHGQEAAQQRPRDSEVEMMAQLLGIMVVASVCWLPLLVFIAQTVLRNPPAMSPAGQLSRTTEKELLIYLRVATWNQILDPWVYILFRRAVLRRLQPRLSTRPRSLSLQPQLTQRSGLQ
Procedure: as §4, §5, §6, §7

HEP3D = biological target: T5, HEP3D (Homo sapiens, UniProt P43115); experiment: Radioligand binding, EP3 receptor; details: [3H]PGE2 5 nM
T5 sequence (P43115 1-374 isoform P43115-4): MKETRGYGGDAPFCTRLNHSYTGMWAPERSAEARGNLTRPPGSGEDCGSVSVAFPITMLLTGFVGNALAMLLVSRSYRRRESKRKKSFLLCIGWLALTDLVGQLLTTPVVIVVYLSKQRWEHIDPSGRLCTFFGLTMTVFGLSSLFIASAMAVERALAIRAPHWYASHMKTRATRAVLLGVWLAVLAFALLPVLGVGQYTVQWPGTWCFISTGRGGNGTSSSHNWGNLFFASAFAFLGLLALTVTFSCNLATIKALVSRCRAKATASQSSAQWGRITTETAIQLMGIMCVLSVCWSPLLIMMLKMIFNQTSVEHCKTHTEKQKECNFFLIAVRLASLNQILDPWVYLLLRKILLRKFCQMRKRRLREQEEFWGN
Procedure: as §1, §2, §3

T3 sequence (P35408 whole entry): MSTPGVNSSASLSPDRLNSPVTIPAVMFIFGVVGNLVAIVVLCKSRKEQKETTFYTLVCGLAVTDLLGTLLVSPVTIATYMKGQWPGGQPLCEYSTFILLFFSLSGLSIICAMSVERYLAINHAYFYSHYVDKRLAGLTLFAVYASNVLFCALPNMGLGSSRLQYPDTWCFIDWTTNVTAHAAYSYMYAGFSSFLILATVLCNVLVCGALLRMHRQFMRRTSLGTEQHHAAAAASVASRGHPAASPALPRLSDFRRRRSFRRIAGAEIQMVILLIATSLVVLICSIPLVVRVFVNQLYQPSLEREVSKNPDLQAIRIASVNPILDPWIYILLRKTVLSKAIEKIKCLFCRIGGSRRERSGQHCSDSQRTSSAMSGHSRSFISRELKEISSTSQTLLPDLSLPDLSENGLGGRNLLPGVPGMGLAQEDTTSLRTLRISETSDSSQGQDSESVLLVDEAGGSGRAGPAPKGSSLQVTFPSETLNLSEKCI
T1 sequence (P35408 whole entry): as above

SMILES	IC50 (HEP4) [µM]	EC50 (hEP3A/Gqi5) [µM]	EC50 (hEP4/Gqs5) [µM]	EC50 (hTP) [µM]	IC50 (HEP3D) [µM]
CC(O)(/C=C/[C@H]1CCC(=O)[C@@H]1SCCCSCC(=O)O)CCc1ccc2ccccc2c1 (single isomer, unassigned) [drawing 24]	0.096	> 10	0.0018	> 10	–
O=C(O)CSCCCS[C@H]1C(=O)C[C@@H](CO)[C@@H]1/C=C/C(O)CCc1cc2ccccc2s1 (single isomer, unassigned) [drawing 31]	1.3	–	0.363	–	–
O=C(O)CSCCCS[C@H]1C(=O)C[C@@H](CO)[C@@H]1/C=C/C(O)CCc1cc2ccccc2s1 (single isomer, unassigned) [drawing 32]	0.1	–	0.463	–	–
CC(O)(/C=C/[C@H]1CCC(=O)[C@@H]1SCCCSCC(=O)O)CCc1ccc2ccccc2c1 (single isomer, unassigned) [drawing 33]	0.2	–	0.02	> 10	–
COC(=O)CSCCCS[C@H]1C(=O)C[C@@H](CO)[C@@H]1/C=C/C(O)CCc1ccc2ccccc2c1 (single isomer, unassigned) [drawing 38]	1.6	–	2.34	–	–
COC(=O)CSCCCS[C@H]1C(=O)C[C@@H](CO)[C@@H]1/C=C/C(O)Cc1ccccc1 (single isomer, unassigned) [drawing 42]	0.195	–	0.106	–	–
COC(=O)CSCCCS[C@H]1C(=O)C[C@@H](CO)[C@@H]1/C=C/C(O)Cc1ccccc1 (single isomer, unassigned) [drawing 43]	1.05	–	2.09	–	–
COC(=O)CSCCCS[C@H]1C(=O)CC[C@@H]1/C=C/C(O)Cc1ccccc1 (single isomer, unassigned) [drawing 45]	0.141	–	0.015	–	–
O=C(O)CSCCCS[C@H]1C(=O)CC[C@@H]1/C=C/C(O)Cc1ccccc1 (single isomer, unassigned) [drawing 47]	0.055	> 10	0.06	–	> 10
O=C(O)CSCCCS[C@H]1C(=O)C[C@@H](CO)[C@@H]1/C=C/C(O)Cc1ccccc1 (single isomer, unassigned) [drawing 50]	0.44	–	0.135	–	–
COC(=O)CSCCCS[C@H]1C(=O)CC[C@@H]1/C=C/C(O)CCc1cc2ccccc2s1 (stereo partly drawn) [drawing 27, {3-[(1R,2R)-2-((E)-5-Benzo[b]thiophen-2-yl-3-hydroxy-pent-1-enyl)-5-oxo-cyclopentylsulfanyl]-propylsulfanyl}-acetic acid methyl ester]	0.3	–	0.0078	–	–
COC(=O)CSCCCS[C@H]1C(=O)C[C@@H](CO)[C@@H]1/C=C/C(O)CCc1cc2ccccc2s1 (stereo partly drawn) [drawing 29, {3-[(1R,2S,3R)-2-((E)-5-Benzo[b]thiophen-2-yl-3-hydroxy-pent-1-enyl)-3-hydroxymethyl-5-oxo-cyclopentylsulfanyl]-propylsulfanyl}-acetic acid methyl ester]	2.1	–	7.94	–	–
COC(=O)CSCCCS[C@H]1C(=O)C[C@@H](CO)[C@@H]1/C=C/C(O)CCc1cc2ccccc2s1 (stereo partly drawn) [drawing 30, {3-[(1R,2S,3R)-2-((E)-5-Benzo[b]thiophen-2-yl-3-hydroxy-pent-1-enyl)-3-hydroxymethyl-5-oxo-cyclopentylsulfanyl]-propylsulfanyl}-acetic acid methyl ester]	1.9	–	> 10	–	–
COC(=O)CSCCCS[C@H]1C(=O)CC[C@@H]1/C=C/C(O)CCc1ccc2ccccc2c1 (stereo partly drawn) [drawing 34, {3-[(1R,2R)-2-((E)-3-Hydroxy-5-naphthalen-2-yl-pent-1-enyl)-5-oxo-cyclopentylsulfanyl]-propylsulfanyl}-acetic acid methyl ester]	0.3	–	0.0005	–	–
COC(=O)CSCCCS[C@H]1C(=O)CC[C@@H]1/C=C/C(O)CCc1ccc2ccccc2c1 (stereo partly drawn) [drawing 35, {3-[(1R,2R)-2-((E)-3-Hydroxy-5-naphthalen-2-yl-pent-1-enyl)-5-oxo-cyclopentylsulfanyl]-propylsulfanyl}-acetic acid methyl ester]	0.2	–	0.0006	–	–
O=C(O)CSCCCS[C@H]1C(=O)C[C@@H](CO)[C@@H]1/C=C/C(O)CCc1ccc2ccccc2c1 (stereo partly drawn) [drawing 40, {3-[(1R,2S,3R)-3-Hydroxymethyl-2-((E)-3-hydroxy-5-naphthalen-2-yl-pent-1-enyl)-5-oxo-cyclopentylsulfanyl]-propylsulfanyl}-acetic acid]	1	–	0.465	–	–
COC(=O)CSCCCS[C@H]1C(=O)CC[C@@H]1/C=C/C(C)(O)CCc1ccc2ccccc2c1 (stereo partly drawn) [{3-[(1R,2R)-2-((E)-3-Hydroxy-3-methyl-5-naphthalen-2-yl-pent-1-enyl)-5-oxo-cyclopentylsulfanyl]-propylsulfanyl}-acetic acid methyl ester]	0.5	–	0.046	–	–
COC(=O)CSCCCS[C@H]1C(=O)CC[C@@H]1/C=C/C(O)Cc1ccc2ccccc2c1 (stereo partly drawn) [{3-[(1R,2R)-2-((E)-3-Hydroxy-4-naphthalen-2-yl-but-1-enyl)-5-oxo-cyclopentylsulfanyl]-propylsulfanyl}-acetic acid methyl ester]	0.083	–	–	–	> 10
